This is an account of results in patent US9096559B2, “4-carboxybenzylamino derivatives as histone deacetylase inhibitors” (Merck Sharp & Dohme Corp., priority 2007, dated 2015).

histone deacetylase, subtype 1 (HDAC1), sequence (Q13547 whole entry): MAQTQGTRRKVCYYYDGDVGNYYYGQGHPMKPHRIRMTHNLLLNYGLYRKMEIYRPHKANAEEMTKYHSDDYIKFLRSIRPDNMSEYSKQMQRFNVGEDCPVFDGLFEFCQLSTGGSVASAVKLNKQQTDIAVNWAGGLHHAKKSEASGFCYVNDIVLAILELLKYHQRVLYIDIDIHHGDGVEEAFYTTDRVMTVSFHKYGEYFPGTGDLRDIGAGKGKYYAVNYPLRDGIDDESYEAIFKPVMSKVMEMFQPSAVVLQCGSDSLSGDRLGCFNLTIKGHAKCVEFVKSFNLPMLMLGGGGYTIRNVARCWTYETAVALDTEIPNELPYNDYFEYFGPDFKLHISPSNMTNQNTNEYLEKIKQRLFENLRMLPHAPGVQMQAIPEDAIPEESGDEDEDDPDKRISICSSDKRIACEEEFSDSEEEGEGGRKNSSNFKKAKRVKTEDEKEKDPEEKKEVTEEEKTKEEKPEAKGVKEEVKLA

The assay addresses histone deacetylase, subtype 1 (HDAC1) (Homo sapiens (Human), UniProt Q13547). The assay is described as follows: HDAC1-Flag in vitro deacetylation assay. It counts as biochemical. The settings on record: IP = inflection point; read-out: HDAC1 IP (inflection point). The method, then:
Novel compounds were tested for their ability to inhibit histone deacetylase, subtype 1 (HDAC1) using an in vitro deacetylation assay. The enzyme source for this assay was an epitope-tagged human HDAC1 complex immuno-purified from stably expressing mammalian cells. The substrate consisted of a commercial product containing an acetylated lysine side chain (BIOMOL Research Laboratories, Inc., Plymouth Meeting, Pa.). Upon deacetylation of the substrate by incubation with the purified HDAC1 complex, a fluorophore is produced that is directly proportional to the level of deacetylation.
Take `O=C(Nc1cc(-c2ccccc2)ccc1O)c1ccc(CNCC2CC2)cc1` [Example 78, 4-{[(cyclopropylmethyl)amino]methyl}-N-(4-hydroxy-3-biphenylyl)benzamide]: the IC50 stood at 72 nM.

With `O=C(Nc1cc(-c2ccccc2)ccc1O)c1ccc(CN2CCOCC2)cc1` [Example 85, N-(4-hydroxy-3-biphenylyl)-4-(4-morpholinylmethyl)benzamide], the IC50 was 48 nM.

On to `O=C(Nc1cc(-c2ccccc2)ccc1O)c1ccc(CNCCc2ccc(Br)cc2)cc1` [Example 72, 4-({[2-(4-bromophenyl)ethyl]amino}methyl)-N-(4-hydroxy-3-biphenylyl)benzamide], for which the IC50 was 1800 nM.

Consider `O=C(Nc1cc(-c2ccccc2)ccc1O)c1ccc(CNC2CCCC2)cc1` [Example 77, 4-[(cyclopentylamino)methyl]-N-(4-hydroxy-3-biphenylyl)benzamide], for which the IC50 was 150 nM.

For `O=C(Nc1cc(-c2ccccc2)ccc1O)c1ccc(CNC2Cc3ccccc3C2)cc1` [Example 108, 4-[(2,3-dihydro-1H-inden-2-ylamino)methyl]-N-(4-hydroxy-3-biphenylyl)benzamide], the IC50 came to 160 nM.

As to `CN1CCN(Cc2ccc(C(=O)Nc3cc(-c4ccccc4)ccc3O)cc2)CC1` [Example 100, N-(4-hydroxy-3-biphenylyl)-4-[(4-methyl-1-piperazinyl)methyl]benzamide], the IC50 was found to be 2400 nM.

`O=C(NCc1ccc(C(=O)Nc2cc(-c3ccccc3)ccc2O)cc1)OCc1cccnc1` [Example 5, pyridin-3-ylmethyl[(4-{[(4-hydroxybiphenyl-3-yl)amino]carbonyl}phenyl)methyl]carbamate]: the IC50 is 20 nM.

With `NCc1ccc(C(=O)Nc2cc(-c3ccccc3)ccc2O)cc1` [Example 8, 4-(aminomethyl)-N-(4-hydroxybiphenyl-3-yl)benzamide], the IC50 is 28 nM.

As to `COC(=O)c1ccc(-c2ccc(N)c(NC(=O)c3ccc(CNC(=O)OCc4cccnc4)cc3)c2)cc1` [Example 2, methyl 4′-amino-3′-[({4-[({[(pyridin-3-ylmethyl)oxy]carbonyl}amino)methyl]phenyl}carbonyl)amino]biphenyl-4-carboxylate], the IC50 was determined as 81 nM.

Consider `O=C(Nc1cc(-c2ccccc2)ccc1O)c1ccc(CNCCc2cccnc2)cc1` [Example 105, N-(4-hydroxy-3-biphenylyl)-4-({[2-(3-pyridinyl)ethyl]amino}methyl)benzamide], for which the IC50 amounted to 2500 nM.

For the compound `O=C(Nc1cc(-c2ccccc2)ccc1O)c1ccc(CNc2ccccc2)cc1` [Example 76, 4-(anilinomethyl)-N-(4-hydroxy-3-biphenylyl)benzamide], the IC50 came out at 89 nM.

In the case of `Nc1ccc(-c2cccnc2)cc1NC(=O)c1ccc(CNC(=O)OCc2cccnc2)cc1` [Example 3, pyridin-3-ylmethyl[(4-{[(2-amino-5-pyridin-3-ylphenyl)amino]carbonyl}phenyl)methyl]carbamate], the IC50 came out at 17 nM.

Regarding `O=C(Nc1cc(-c2ccccc2)ccc1O)c1ccc(CNc2ccncc2)cc1` [Example 84, N-(4-hydroxy-3-biphenylyl)-4-[(4-pyridinylamino)methyl]benzamide], the IC50 amounted to 9.9 nM.

`CCN(C)Cc1ccc(C(=O)Nc2cc(-c3ccccc3)ccc2O)cc1` [Example 94, 4-{[ethyl(methyl)amino]methyl}-N-(4-hydroxy-3-biphenylyl)benzamide]: the IC50 stood at 31 nM.

`CC(C)CNCc1ccc(C(=O)Nc2cc(-c3ccccc3)ccc2O)cc1` [Example 73, N-(4-hydroxy-3-biphenylyl)-4-[(isobutylamino)methyl]benzamide]: the IC50 was 110 nM.

Turning to `NCCNCc1ccc(C(=O)Nc2cc(-c3ccccc3)ccc2O)cc1` [Example 107, 4-{[(2-aminoethyl)amino]methyl}-N-(4-hydroxy-3-biphenylyl)benzamide], the IC50 came out at 72 nM.

`O=C(Nc1cc(-c2ccccc2)ccc1O)c1ccc(CN2CCCC2c2ccccn2)cc1` (stereo not shown) [Example 116, N-(4-hydroxy-3-biphenylyl)-4-{[2-(2-pyridinyl)-1-pyrrolidinyl]methyl}benzamide]: the IC50 stood at 280 nM.

Consider `CC(C)(C)OC(=O)NCc1ccc(C(=O)Nc2cc(-c3ccccc3)ccc2O)cc1` [Example 7, 1,1-dimethylethyl[(4-{[(4-hydroxybiphenyl-3-yl)amino]carbonyl}phenyl)methyl]carbamate], for which the IC50 was found to be 70 nM.

`COc1cccc(CNCc2ccc(C(=O)Nc3cc(-c4ccccc4)ccc3O)cc2)c1` [Example 117, N-(4-hydroxy-3-biphenylyl)-4-{[(3-methoxybenzyl)amino]methyl}benzamide]: the IC50 is 4300 nM.

Regarding `CN(Cc1ccc(C(=O)Nc2cc(-c3ccccc3)ccc2O)cc1)Cc1cnn(C)c1` [Example 114, N-(4-hydroxy-3-biphenylyl)-4-({methyl[(1-methyl-1H-pyrazol-4-yl)methyl]amino}methyl)benzamide], the IC50 was 24 nM.

As to `O=C(Nc1cc(-c2ccccc2)ccc1O)c1ccc(CNCCOc2ccccc2)cc1` [Example 96, N-(4-hydroxy-3-biphenylyl)-4-{[(2-phenoxyethyl)amino]methyl}benzamide], the IC50 was found to be 360 nM.

With `O=C(Nc1cc(-c2ccccc2)ccc1O)c1ccc(CN2CCNCC2)cc1` [Example 83, N-(4-hydroxy-3-biphenylyl)-4-(1-piperazinylmethyl)benzamide], the IC50 worked out at 65 nM.

Consider `CN(Cc1ccc(C(=O)Nc2cc(-c3ccccc3)ccc2O)cc1)C1CCOC1` (stereo not shown) [Example 112, N-(4-hydroxy-3-biphenylyl)-4-{[methyl(tetrahydro-3-furanyl)amino]methyl}benzamide], for which the IC50 stood at 43 nM.

Consider `CN(C)CCNCc1ccc(C(=O)Nc2cc(-c3ccccc3)ccc2O)cc1` [Example 80, 4-({[2-(dimethylamino)ethyl]amino}methyl)-N-(4-hydroxy-3-biphenylyl)benzamide], for which the IC50 was found to be 120 nM.

In the case of `CN1CCC(CN(C)Cc2ccc(C(=O)Nc3cc(-c4ccccc4)ccc3O)cc2)CC1` [Example 115, N-(4-hydroxy-3-biphenylyl)-4-({methyl[(1-methyl-4-piperidinyl)methyl]amino}methyl)benzamide], the IC50 was determined as 78 nM.

Consider `CNCCCN(C)Cc1ccc(C(=O)Nc2cc(-c3ccccc3)ccc2O)cc1` [Example 99, N-(4-hydroxy-3-biphenylyl)-4-({methyl[3-(methylamino)propyl]amino}methyl)benzamide], for which the IC50 was 18 nM.

Take `CN(Cc1ccccc1)Cc1ccc(C(=O)Nc2cc(-c3ccccc3)ccc2O)cc1` [Example 88, 4-{[benzyl(methyl)amino]methyl}-N-(4-hydroxy-3-biphenylyl)benzamide]: the IC50 was 350 nM.

On to `CC1CCN(Cc2ccc(C(=O)Nc3cc(-c4ccccc4)ccc3O)cc2)CC1` [Example 87, N-(4-hydroxy-3-biphenylyl)-4-[(4-methyl-1-piperidinyl)methyl]benzamide], for which the IC50 turned out to be 220 nM.

Turning to `CN1CCC(CNCc2ccc(C(=O)Nc3cc(-c4ccccc4)ccc3O)cc2)C1` (stereo not shown) [Example 110], the IC50 stood at 180 nM.

Consider `CN(CCc1ccccc1)Cc1ccc(C(=O)Nc2cc(-c3ccccc3)ccc2O)cc1` [Example 93, N-(4-hydroxy-3-biphenylyl)-4-{[methyl(2-phenylethyl)amino]methyl}benzamide], for which the IC50 was 340 nM.

Turning to `O=C(Nc1cc(-c2ccccc2)ccc1O)c1ccc(CNCCn2cccn2)cc1` [Example 111, N-(4-hydroxy-3-biphenylyl)-4-({[2-(1H-pyrazol-1-yl)ethyl]amino}methyl)benzamide], the IC50 turned out to be 33 nM.

Take `CCN1CCC(CNCc2ccc(C(=O)Nc3cc(-c4ccccc4)ccc3O)cc2)CC1` [Example 102, 4-({[(1-ethyl-4-piperidinyl)methyl]amino}methyl)-N-(4-hydroxy-3-biphenylyl)benzamide]: the IC50 was 65 nM.

For the compound `O=C(Nc1cc(-c2ccccc2)ccc1O)c1ccc(CNCCCN2CCCC2)cc1` [Example 82, N-(4-hydroxy-3-biphenylyl)-4-({[3-(1-pyrrolidinyl)propyl]amino}methyl)benzamide], the IC50 was 91 nM.

In the case of `O=C(Nc1cc(-c2ccccc2)ccc1O)c1ccc(CNCCNc2ccccc2)cc1` [Example 97, 4-{[(2-anilinoethyl)amino]methyl}-N-(4-hydroxy-3-biphenylyl)benzamide], the IC50 stood at 260 nM.

As for `O=C(Nc1cc(-c2ccccc2)ccc1O)c1ccc(CNCCCc2ccncc2)cc1` [Example 109, N-(4-hydroxy-3-biphenylyl)-4-({[3-(4-pyridinyl)propyl]amino}methyl)benzamide], the IC50 was determined as 100 nM.

Regarding `CC(C)OCCCNCc1ccc(C(=O)Nc2cc(-c3ccccc3)ccc2O)cc1` [Example 86, N-(4-hydroxy-3-biphenylyl)-4-{[(3-isopropoxypropyl)amino]methyl}benzamide], the IC50 amounted to 95 nM.

Turning to `Cc1nc(-c2ccccc2)sc1CNCc1ccc(C(=O)Nc2cc(-c3ccccc3)ccc2O)cc1` [Example 74, N-(4-hydroxy-3-biphenylyl)-4-({[(4-methyl-2-phenyl-1,3-thiazol-5-yl)methyl]amino}methyl)benzamide], the IC50 worked out at 690 nM.

In the case of `O=C(Nc1cc(-c2ccccc2)ccc1O)c1ccc(CNCc2cccs2)cc1` [Example 98, N-(4-hydroxy-3-biphenylyl)-4-{[(2-thienylmethyl)amino]methyl}benzamide], the IC50 was determined as 2100 nM.

On to `O=C(Nc1cc(-c2ccccc2)ccc1O)c1ccc(CN2CCc3ccccc3C2)cc1` [Example 90, 4-(3,4-dihydro-2(1H)-isoquinolinylmethyl)-N-(4-hydroxy-3-biphenylyl)benzamide], for which the IC50 was 250 nM.

As for `CN(C)C1CCN(Cc2ccc(C(=O)Nc3cc(-c4ccccc4)ccc3O)cc2)C1` (stereo not shown) [Example 106, 4-{[3-(dimethylamino)-1-pyrrolidinyl]methyl}-N-(4-hydroxy-3-biphenylyl)benzamide], the IC50 stood at 50 nM.
